Converted amounts (≈) assume the structure as drawn. Like-named read-outs stand apart in the source and are kept apart here. One block for each molecule: values may come before it.
What was measured:
APH(2”)-IVa [1] = biological target: T1, APH(2”)-IVa (Enterococcus casseliflavus, UniProt O68183); test: biochemical; conditions: Ki (µM), inhibition constant, ATP-competitive; 0-2 mM MgATP, 100 µM kanamycin A, global fitting
APH(2”)-IVa [2] = biological target: T1, APH(2”)-IVa; test: biochemical; assay type: binding; conditions: read-out: ΔTm (°C)
Procedure: Thermal shift assays were performed using an RTqPCR machine Mx3005P (Stratagene) in 96-well plates (Thermo-Fast low Profile, ThermoScientific) by mixing the protein at 5 µM, SYPRO® Orange (Sigma Aldrich) at […], and fragments at 500 µM. Fluorescence was followed with Cy3 and SYAL filters. Denaturation curves were collected using MxPro-Mx3005P v4.10 software and analyzed using the implemented version of wTSA-CRAFT[36].

APH(2”)-IVa [3] = biological target: T1, APH(2”)-IVa
[4] = test system: P. aeruginosa clinical isolates; test: MIC by broth micro-dilution; assay type: cell-based
S. aureus C0032 [5] = test: MIC by broth micro-dilution; assay type: cell-based; conditions: S. aureus C0032, aph(3')-IIIa ant(6)
P. aeruginosa C0307 = test: Checkerboard assay of 83 with kanamycin A; assay type: cell-based; conditions: for MIC of kanamycin A: [83] 0 µg mL^−1, 18 h at 37 °C; for checkerboard well reading (growth): 83 0 µg.mL-1
S. aureus C0032 [6] = test: Checkerboard assay of 83 with kanamycin A; assay type: cell-based; conditions: for checkerboard well reading (growth): Supp. Figure 3 C, 83 0 µg.mL-1
[7] = Pseudomonas aeruginosa, P. aeruginosa C0214, aph(3')-IIb, read-out: MIC
[8] = Pseudomonas aeruginosa, P. aeruginosa C0307, aph(3')-IIb, read-out: MIC
[9] = Staphylococcus aureus, read-out: MIC

T1 sequence (O68183 1-301): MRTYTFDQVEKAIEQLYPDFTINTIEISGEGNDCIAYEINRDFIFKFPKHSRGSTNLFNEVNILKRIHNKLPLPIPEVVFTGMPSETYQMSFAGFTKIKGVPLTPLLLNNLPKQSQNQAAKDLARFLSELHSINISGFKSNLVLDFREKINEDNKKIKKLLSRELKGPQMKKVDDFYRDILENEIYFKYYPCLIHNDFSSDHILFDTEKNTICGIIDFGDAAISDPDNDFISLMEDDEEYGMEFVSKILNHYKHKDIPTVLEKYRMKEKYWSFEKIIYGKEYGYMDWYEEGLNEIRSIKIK

Molecule: O=C(NCCc1ccn(-c2ccccc2)n1)c1cc(NC2CC2)ncc1Cl [Compound 36-9]
Ki (APH(2”)-IVa [1]): 13.4 µM

Molecule: O=C(Nc1ccc(O)cc1)Nc1ccc(F)cc1 [Compound 37]
ΔTm at 500 µM (APH(2”)-IVa [2]): 1.17 °C

Molecule: Nc1cncc(-c2cc[nH]n2)c1 [Compound 58]
ΔTm at 500 µM (APH(2”)-IVa [2]): 1.18 °C

Molecule: O=Cc1cncc(-c2cc[nH]n2)c1 [Compound 66]
ΔTm at 500 µM (APH(2”)-IVa [2]): 0.54 °C

Molecule: COC(=O)c1cncc(-c2cc[nH]n2)c1 [Compound 67]
ΔTm at 500 µM (APH(2”)-IVa [2]): 1.16 °C

Molecule: Nc1cc(-c2ccn[nH]2)ccn1 [Compound 68]
ΔTm at 500 µM (APH(2”)-IVa [2]): 1.29 °C | Ki (APH(2”)-IVa [1]): 81.9 µM

Molecule: O=C(O)c1c[nH]c2ncc(Cl)cc12 [Compound 79]
Ki (APH(2”)-IVa [1]): 27.5 µM

Molecule: NC(=O)c1c[nH]c2ncc(Cl)cc12 [Compound 80]
Ki (APH(2”)-IVa [1]): 10.3 µM

Molecule: CNC(=O)c1c[nH]c2ncc(Cl)cc12 [Compound 81]
Ki (APH(2”)-IVa [1]): 9.47 µM

Molecule: CN(C)C(=O)c1c[nH]c2ncc(Cl)cc12 [Compound 82]
Ki (APH(2”)-IVa [1]): 19.7 µM

Molecule: Clc1cnc2[nH]ccc2c1-c1cn[nH]c1 [Compound 84]
Ki (APH(2”)-IVa [1]): 1.58 µM

Molecule: Clc1cnc2[nH]ccc2c1-c1ccc[nH]1 [Compound 85]
Ki (APH(2”)-IVa [1]): 1.74 µM

Molecule: Clc1cnc2[nH]ccc2c1-c1ccsc1 [Compound 86]
Ki (APH(2”)-IVa [1]): 1.75 µM

Molecule: Nc1ccccn1 [Compound F68]
ΔTm at 500 µM (APH(2”)-IVa [2]): -0.27 °C | Inhibition (APH(2”)-IVa [3]): 11% | Ki (APH(2”)-IVa [1]): 260 µM

Molecule: Nc1ccc(Cl)cn1 [Compound F69]
Inhibition relative to F68 (APH(2”)-IVa [3]; 500 µM, times more inhibition than F68): 6.2 times

Molecule: c1cnc2[nH]ccc2c1 [Compound F136, 7-azaindole]
ΔTm at 500 µM (APH(2”)-IVa [2]): 0.06 °C

Molecule: CC(=O)c1cc2ccccc2oc1=O [Compound F144]
ΔTm at 500 µM (APH(2”)-IVa [2]): 0.09 °C

Molecule: OCc1c[nH]c2ncccc12 [Compound F355, 3-hydroxymethyl-7-azaindole]
ΔTm at 500 µM (APH(2”)-IVa [2]): -0.41 °C

MIC [4, 7]: 0.5 to 1 µg/mL (≈ 1.19 to 2.38 µM) | MIC [4, 8]: 0.25 µg/mL (≈ 0.595 µM) | MIC (S. aureus C0032 [5]; [9]): > 4 µg/mL
Molecule: C[C@@H](O)[C@H]1C(=O)N2C(C(=O)O)=C(S[C@@H]3CN[C@H](CNS(N)(=O)=O)C3)[C@H](C)[C@H]12 [Doripenem]

MIC [4, 7]: > 2 µg/mL | MIC [4, 8]: 8 to 16 µg/mL (≈ 16.8 to 33.6 µM) | MIC (S. aureus C0032 [5]; [9]): 4 µg/mL (≈ 8.41 µM)
Molecule: C[C@@H](O)[C@H]1C(=O)N2C(C(=O)O)=C(S[C@@H]3CN[C@H](C(=O)Nc4cccc(C(=O)O)c4)C3)[C@H](C)[C@H]12 [Ertapenem]

MIC [4, 7]: 2 µg/mL (≈ 4.19 µM) | MIC [4, 8]: 2 µg/mL (≈ 4.19 µM) | MIC (S. aureus C0032 [5]; [9]): < 1 µg/mL
Molecule: CNC(C)C1CCC(N)C(OC2C(N)CC(N)C(OC3OCC(C)(O)C(NC)C3O)C2O)O1 (centres unmarked) [Gentamicin]

MIC [4, 7]: > 2 µg/mL | MIC [4, 8]: 2 µg/mL (≈ 6.68 µM)
Molecule: C[C@@H](O)[C@H]1C(=O)N2C(C(=O)O)=C(SCCN=CN)C[C@H]12 [Imipenem]

MIC [4, 7]: 0.5 to 1 µg/mL (≈ 1.3 to 2.61 µM) | MIC [4, 8]: 0.063 to 0.125 µg/mL (≈ 0.164 to 0.326 µM) | MIC (S. aureus C0032 [5]; [9]): > 4 µg/mL
Molecule: C[C@@H](O)[C@H]1C(=O)N2C(C(=O)O)=C(S[C@@H]3CN[C@H](C(=O)N(C)C)C3)[C@H](C)[C@H]12 [Meropenem]

MIC [4, 7]: 32 µg/mL (≈ 55 µM) | MIC [4, 8]: 64 µg/mL (≈ 110 µM) | MIC (S. aureus C0032 [5]; [9]): 2 to 4 µg/mL (≈ 3.44 to 6.88 µM)
Molecule: [H]/N=C(/N)N[C@H]1[C@H](O)[C@@H](O)[C@H](O[C@@H]2O[C@@H](C)[C@](O)(C=O)[C@H]2O[C@@H]2O[C@@H](CO)[C@H](O)[C@@H](O)[C@@H]2NC)[C@@H](N/C(N)=N\[H])[C@@H]1O [Streptomycin]

Molecule: kanamycin A [reference compound]
MIC ([4]; P. aeruginosa 1676, aph(3')-IIb): 128 µg/mL | MIC ([4]; P. aeruginosa 1761, aph(3')-IIb): 128 µg/mL | MIC ([4]; P. aeruginosa 1766, aph(3')-IIb): 128 µg/mL | MIC ([4]; P. aeruginosa 1781, aph(3')-IIb): 512 µg/mL | MIC ([4]; P. aeruginosa 1869, aph(3')-IIb aac(6')-Ib3): 1024 µg/mL | MIC ([4]; P. aeruginosa C0214, aph(3')-IIb): 256 to 512 µg/mL | MIC ([4]; P. aeruginosa C0307, aph(3')-IIb): 64 to 128 µg/mL | MIC ([4]; P. aeruginosa C0307, aph(3')-IIb, listed as Kanamycin A): 64 to 128 µg/mL | MIC (S. aureus C0032 [5]): 4096 µg/mL | MIC of kanamycin A (P. aeruginosa C0307; 0 µg mL^−1 imipenem): 64 µg/mL | MIC of kanamycin A (P. aeruginosa C0307; 0.05 µg mL^−1 imipenem): 64 µg/mL | checkerboard well reading (growth) (P. aeruginosa C0307; Supp. Figure 3 A, kanamycin A 2 µg.mL-1): 1.208 | checkerboard well reading (growth) (P. aeruginosa C0307; Supp. Figure 3 A, kanamycin A 4 µg.mL-1): 1.193 | checkerboard well reading (growth) (P. aeruginosa C0307; Supp. Figure 3 A, kanamycin A 8 µg.mL-1): 1.188 | checkerboard well reading (growth) (P. aeruginosa C0307; Supp. Figure 3 A, kanamycin A 16 µg.mL-1): 1.223 | checkerboard well reading (growth) (P. aeruginosa C0307; Supp. Figure 3 A, kanamycin A 32 µg.mL-1): 1.192 | checkerboard well reading (growth) (P. aeruginosa C0307; Supp. Figure 3 A, kanamycin A 64 µg.mL-1): 0.162 | checkerboard well reading (growth) (P. aeruginosa C0307; Supp. Figure 3 A, kanamycin A 128 µg.mL-1): 0.039 | checkerboard well reading (growth) (P. aeruginosa C0307; Supp. Figure 3 B, kanamycin A 2 µg.mL-1): 1.210 | checkerboard well reading (growth) (P. aeruginosa C0307; Supp. Figure 3 B, kanamycin A 4 µg.mL-1): 1.193 | checkerboard well reading (growth) (P. aeruginosa C0307; Supp. Figure 3 B, kanamycin A 8 µg.mL-1): 1.143 | checkerboard well reading (growth) (P. aeruginosa C0307; Supp. Figure 3 B, kanamycin A 16 µg.mL-1): 1.167 | checkerboard well reading (growth) (P. aeruginosa C0307; Supp. Figure 3 B, kanamycin A 32 µg.mL-1): 1.151 | checkerboard well reading (growth) (P. aeruginosa C0307; Supp. Figure 3 B, kanamycin A 64 µg.mL-1): 0.174 | checkerboard well reading (growth) (P. aeruginosa C0307; Supp. Figure 3 B, kanamycin A 128 µg.mL-1): 0.043 | MIC of kanamycin A (S. aureus C0032 [6]; 0.125 µg mL^−1 imipenem, [83] 0 µg mL^−1, 18 h at 37 °C): 4096 µg/mL | checkerboard well reading (growth) (S. aureus C0032 [6]; kanamycin A 2 µg.mL-1): 0.337 | checkerboard well reading (growth) (S. aureus C0032 [6]; kanamycin A 4 µg.mL-1): 0.322 | checkerboard well reading (growth) (S. aureus C0032 [6]; kanamycin A 8 µg.mL-1): 0.304 | checkerboard well reading (growth) (S. aureus C0032 [6]; kanamycin A 16 µg.mL-1): 0.292 | checkerboard well reading (growth) (S. aureus C0032 [6]; kanamycin A 32 µg.mL-1): 0.272 | checkerboard well reading (growth) (S. aureus C0032 [6]; kanamycin A 64 µg.mL-1): 0.258 | checkerboard well reading (growth) (S. aureus C0032 [6]; kanamycin A 128 µg.mL-1): 0.312

From article PMC12749166, “Fragment-based drug design of a bacterial kinase inhibitor capable of increasing the antibiotic sensitivity of clinical isolates” (Communications Chemistry, 2025)
